Experimental data taken from PMC9983021, “Novel GluN2B-Selective NMDA Receptor Negative Allosteric Modulator Possesses Intrinsic Analgesic Properties and Enhances Analgesia of Morphine in a Rodent Tail Flick Pain Model” (ACS Chemical Neuroscience, 2023).

Key:
[1] = tested on: Sprague-Dawley rats; assay: Chung spinal nerve ligation model of allodynia; format: in vivo; conditions: male rats, 10 mg/kg i.p., n=10
Description: Methods for Chung Spinal Nerve Ligation
The Chung spinal nerve ligation model was implemented by Algos Therapeutics. Male Sprague-Dawley rats (Hsd:Sprague-Dawley®™SD®™, Harlan, Indianapolis, Indiana, U.S.A.) weighing 222 ± 1 g were housed three per cage and given ad libitum access to food and water. Animal holding rooms operated on a 12:12h light/dark schedule for the entire duration of the study. The animal colony was maintained at 21 °C and 60% humidity. All experiments were conducted in accordance with the International Association for the Study of Pain guidelines and were approved by the University of Minnesota Animal Care and Use Committee.
Allodynia was induced via the Chung spinal nerve ligation (SNL) method116 in which the animals were anesthetized with isoflurane, the left L5 transverse process was removed, then the L5 and L6 spinal nerves were tightly ligated with 6-0 silk suture. Finally, the wound was closed with internal sutures and external staples. Allodynia was assessed using 8 Semmes-Weinstein filaments (Stoelting, Wood Dale, IL, USA) with varying stiffness (0.4, 0.7, 1.2, 2.0, 3.6, 5.5, 8.5, and 15 g) following the up-down method117 first published by Chaplan et al. in 1994. Baseline measurements were taken two weeks following SNL and prior to compound administration. Measurements were also taken 30, 60, 120 and 240 minutes post intraperitoneal compound injection. […]

[2] = target: GluN1/GluN2D (Rattus norvegicus, UniProt P35439+Q62645)
Chain of GluN1/GluN2D (Q62645 28-1323, other chains not shown): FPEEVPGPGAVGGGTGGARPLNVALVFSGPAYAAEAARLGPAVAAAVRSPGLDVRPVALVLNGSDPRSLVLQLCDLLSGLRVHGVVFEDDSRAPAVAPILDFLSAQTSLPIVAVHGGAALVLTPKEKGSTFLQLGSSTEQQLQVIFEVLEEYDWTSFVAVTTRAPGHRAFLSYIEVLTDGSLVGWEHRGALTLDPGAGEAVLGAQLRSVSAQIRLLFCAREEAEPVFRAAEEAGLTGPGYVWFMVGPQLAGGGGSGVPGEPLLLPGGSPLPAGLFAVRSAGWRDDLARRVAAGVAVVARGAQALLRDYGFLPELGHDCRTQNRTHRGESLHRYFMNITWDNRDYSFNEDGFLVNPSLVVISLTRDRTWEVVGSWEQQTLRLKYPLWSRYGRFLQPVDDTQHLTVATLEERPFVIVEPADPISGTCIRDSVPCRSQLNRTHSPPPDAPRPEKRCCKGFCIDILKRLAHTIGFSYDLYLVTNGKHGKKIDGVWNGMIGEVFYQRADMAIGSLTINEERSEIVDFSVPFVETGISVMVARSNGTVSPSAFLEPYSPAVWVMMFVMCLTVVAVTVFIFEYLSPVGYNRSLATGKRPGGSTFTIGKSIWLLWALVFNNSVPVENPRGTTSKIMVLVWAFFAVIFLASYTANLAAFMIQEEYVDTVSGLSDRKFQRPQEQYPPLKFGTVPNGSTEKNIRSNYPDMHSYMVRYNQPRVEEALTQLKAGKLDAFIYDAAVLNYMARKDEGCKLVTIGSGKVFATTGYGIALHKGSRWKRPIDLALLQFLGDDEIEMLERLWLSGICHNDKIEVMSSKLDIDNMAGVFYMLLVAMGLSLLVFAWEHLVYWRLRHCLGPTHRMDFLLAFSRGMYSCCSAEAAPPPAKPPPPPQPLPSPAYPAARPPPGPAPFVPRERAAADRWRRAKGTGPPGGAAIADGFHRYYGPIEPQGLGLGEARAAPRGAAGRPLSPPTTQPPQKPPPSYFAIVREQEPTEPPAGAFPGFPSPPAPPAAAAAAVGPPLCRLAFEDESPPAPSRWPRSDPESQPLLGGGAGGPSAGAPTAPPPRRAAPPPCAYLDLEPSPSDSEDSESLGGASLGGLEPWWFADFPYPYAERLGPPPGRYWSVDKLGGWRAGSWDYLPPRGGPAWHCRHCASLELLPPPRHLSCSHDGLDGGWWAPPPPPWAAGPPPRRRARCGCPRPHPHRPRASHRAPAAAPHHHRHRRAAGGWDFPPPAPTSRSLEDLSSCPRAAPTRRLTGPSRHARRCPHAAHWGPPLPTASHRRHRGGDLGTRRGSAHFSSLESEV

[3] = target: triheteromeric rat GluN1/GluN2Ac1/GluN2Bc2 (r2Ac1/r2Bc2) (Rattus norvegicus, UniProt P35439+Q00959+Q00960, A876H/F846L/G856D/H848F/K857R/M851T/M860L/Q845K/V861L); assay: Concentration-inhibition curves, oocytes, C1/C2-tagged NMDARs; format: cell-based
[4] = tested on: C57BL/6J mice; assay: Morphine analgesic tolerance development, chronic co-administration (tail immersion test); format: in vivo; conditions: male (10 mg/kg) and female (20 mg/kg) mice; co-administered with morphine three times a day for three days
Description: Morphine tolerance was induced using repeated administration of increasing doses of morphine from 25 to 40 mg/kg three times a day at 3 to 4 h intervals over three consecutive days (Figure 9). This procedure was adapted from previous publications.[87]−[89]
Figure 9 Morphine analgesic tolerance “stair stepping” dosing regimen. TIT = tail immersion test. On day 1, TIT was conducted to determine baseline latencies for all mice. On days 1 through 3, each mouse was administered morphine s.c. three times per day at doses increasing from 25 to 40 mg/kg at 8:00 am, 12:00 pm, and 4:00 pm. Doses of morphine are shown above the arrows, in mg/kg. […]
Mouse weights were recorded on the day of each experiment. […] Three recordings were taken for each mouse, and each data point is expressed as the mean of the three recordings. […] The identities were not decoded until the data were analyzed.
Prism 9.3.1 software (GraphPad, San Diego, CA) was used for all data analysis and visualization. Data for intrinsic antinociception was analyzed using one-way ANOVA and Dunnett’s post hoc test for multiple comparisons where each group was compared to vehicle. Data for acute morphine potentiation experiments were analyzed using one-way ANOVA and Tukey’s post hoc test for multiple comparisons was also used, where each group mean was compared to the mean of every other group. […]

CS(=O)(=O)Nc1ccc(OC[C@@H](O)CN2CCN(c3ccc(F)c(F)c3)CC2)cc1 [EU93-108, (S)-N-(4-(3-(4-(3,4-Difluorophenyl)piperazin-1-yl)-2-hydroxypropoxy)phenyl)methanesulfonamide]
effect on allodynia (von Frey threshold) [1]: efficacious
% Control 10 µM EU93-108 ([2]; agonist 100 µM glutamate, 30 µM glycine, mean ± SEM): 97 ± 1.9%
inhibition at 10 µM ([2]; read-out: Mean % Inhibition by 10 μM EU93-108): 4.6 ± 1.2%
residual current remaining at 10 μM EU93-108 ([3]; 10 μM, % of maximal response, n = 12): 54%
IC50 ([3]; 100 μM glutamate and 100 μM glycine, −40 mV, pH 7.4, n = 12): 543 nM
nH ([3]; Hill slope factor of the inhibition curve, Table S1): -0.92
Ymin ([3]; residual response, Table S1, N = 12): 54.0
effect on development of morphine tolerance [4]: failed to inhibit the development of tolerance
